The results in this text go back to patent US20160235807A1, “AGONISTS OF GUANYLATE CYCLASE USEFUL FOR DOWNREGULATION OF PRO-INFLAMMATORY CYTOKINES” (SYNERGY PHARMACEUTICALS, INC., priority 2013, published 2016).

Bridge positions count the residues as written; N and C are the ends. Square brackets hold non-standard residues; d marks the D form. Ends that are not written are not given here.

The test system of one test is Src. The test is described as follows: Activation of Src and GCRA-mediated cGMP production by T84 cells (FIG. 13). Format: cell-based, human. To be noted: activation of Src.
The format of test [1] is in vitro ADME. On the procedure:
The potency of test peptides to stimulate cGMP synthesis in T84 cells was assayed by a published procedure (Shailubhai et al. 2000). Briefly, confluent monolayers of T-84 cells in 24-well plates were washed twice with 250 μl of DMEM containing 50 mM HEPES (pH 7.4), pre-incubated at 37° C. for 10 min with 250 μl of DMEM containing 50 mM HEPES (pH 7.4) and 1 mM isobutylmethylxanthine (IBMX), followed by incubation with test peptide for 30 min. The medium was aspirated, and the reaction was terminated by the addition of 3% perchloric acid. Following centrifugation, and neutralization with 0.1 N NaOH, the resulting supernatant was used directly for measurements of intracellular cGMP using an ELISA kit (Caymen Chemical, Ann Arbor, Mich.). Results are expressed as pmol of cGMP/mg of protein in the cell extracts.
Plecanatide and SP-333 were incubated in simulated intestinal fluid (SIF) for 6-24 h. Inactivated SIF was used as a control. Following the treatment, samples were analyzed by HPLC by cGMP production in T84 cells. […] The active metabolite, SP-338 was characterized by MS and MS/MS and identified to be formed via removal of carboxyl terminal leucine possibly due to cleavage by carboxypeptidases.

A further test concerns DSS-induced colitis. Briefly: DSS-induced colitis in BDF-1 mice. Format: in vivo, mouse. On the procedure: To evaluate the efficacy of plecanatide in DSS induced colitis model, 48 BDF-1 mice were divided into 8 treatment groups (6 mice/group). One group was not exposed to DSS (untreated control) and groups 2-8 were treated with 5% DSS in the drinking water on day 0. Plecanatide or SP-333 solutions formulated in 0.1M phosphate buffer (pH 7) was administered by oral gavage, once a day at 0.005, 0.05, 0.5, 2.5 and 5 mg/kg, from study day −1 (i.e. prior to initiation of DSS treatment) through day 6 for SP-333 or day 7 for plecanatide. DSS treatment was initiated on day 0 for groups 2-8 until the end of the study. Sulfasalazine (80 mg/kg) or 5-ASA (100 mg/kg) was used as positive control and was administered daily. Mice were sacrificed on day 7. The large intestine was removed and weighed. Distal section of the large intestine was collected and fixed as described above.
Disease activity index (DAI) was calculated by scoring in-life parameters starting from day −1 until the end of the study. Once daily, all mice were weighed and assessed for stool consistency, and the presence of overt blood in the stool or around the anus essentially similar to that reported earlier. Colitis severity was assessed by histopathological analyses of H&E stained tissue sections (Hegazi et al., 2005; Dave et al., 2009) employing the following criteria: (score 0) normal appearing crypts; (score 1) abnormal crypt pathology without ulceration; (score 2) depleted crypts with ulceration; (score 3) 20-50% depleted crypts and increased ulceration; (score 4) >50% depleted crypts with substantial ulceration and (score 5) totally ulcerated/inflamed colon with no crypts remaining. All slides were scored in a blinded manner. Colitis severity in TCRα−/− model was scored as previously described^25. All slides were scored in a blinded manner. Disease activity index (DAI) was calculated by assessing body weight, stool consistency, and the presence of overt blood in stools or around the anus, essentially similar to that reported earlier (Hamamoto et al., 1999).

Test [2] has as its system myeloperoxidase (MPO) activity in colon tissues. Briefly: MPO activity in lysates from mid-colon tissues, DSS-induced colitis in BDF-1 mice. Format: in vivo, mouse. The following applies: 5-ASA 100 mg/kg. On the procedure:
(§1) A total of 40 samples were chosen for analysis of MPO activity and Ki-67 labeling from the treatment groups that received SP-333, its vehicle control (0.1M phosphate buffer, pH 7) and the reference compound (5-ASA). A random number generator (www.random.org) was employed to select samples from these groups (7 from each of the SP-333-recipient groups and 6 from each of the vehicle and 5-ASA groups).
Myeloperoxidase activity in colonic tissue samples was performed according to the method described (Krawisc et al., 1984). Briefly, the rate of change in absorbance at 450 nm was recorded when 20 μl of tissue extract was incubated with […] of reaction buffer containing 0.26 mg/ml 0-dianisidine and 0.6 μl/ml H2O2. Each reaction was performed in triplicate. The rate of reaction was determined (initial slope) and normalized to protein concentration of sample.

Test [3] relates to Ki-67 labeling of crypt epithelial cells. Briefly: Ki-67 labeling in large bowel cross sections, DSS-induced colitis in BDF-1 mice. Format: in vivo, mouse. To be noted: 5-ASA treated mice.
Source text: as §1
Employing standard procedures, two non-serial sections from each animal, were de-waxed in xylene and rehydrated in graded alcohols to PBS (pH 7.4). Endogenous peroxidase was blocked by incubation in 0.3% […] for 30 min. Antigen retrieval was performed by placing the slides in 1 L of citrate buffer (pH 6) and microwaving at high power for 20 minutes. After cooling for 15 minutes, sections were incubated with 10% normal goat serum for 30 minutes to block non-specific binding Primary antibody (mouse monoclonal IgG, clone MIB-1, Dako) at 1/50 dilution was added and incubated for 1 hour at room temperature. Sections were washed and incubated with biotinylated secondary IgG antibody (1/200 dilution; Vector Labs Inc.), for 45 minutes at room temperature. Subsequently, slides were washed and incubated with ABC Elite reagents (Vector Labs Inc.), for 30 minutes at room temperature. […] Sections were counterstained with thionine, dehydrated and mounted.

In test [4] the test system is NF-κB. Briefly: Inhibition of NF-κB signaling in LPS-stimulated T84 cells, Western blot. Format: cell-based, human. The following applies: zaprinast 500 μM alone. On the technique in general: In western blotting, separated proteins are transferred to a membrane and probed.
In test [5] the test system is NF-κB. Described as above. Format: cell-based, human. On the procedure:
Approximately 1.5×10^6 T84 cells were seeded into 100 mm dishes and cultured essentially as described (Shailubhai et al. 2000). At 85-90% confluence, cells were washed and treated with 10 μg/ml lipopolysaccharides (LPS) from Escherichia coli (Sigma-Aldrich, St. Louis, Mo.) for 4 h. Subsequent to LPS treatment, cells were washed and replenished with fresh media containing 8-Bromo-cyclic GMP (8-Br-cGMP) at 0, 0.1, 1, 10, 100 and 1000 μM (Enzo Life Science, Farmingdale, N.Y.), or SP-333 at 0, 0.01, 0.1, 1 and 10 μM together with 500 μM of phosphodiesterase inhibitor Zaprinast (Sigma-Aldrich, St. Louis, Mo.) for 16 h before harvest. For analyzing phosphorylation status of IKK-α/β, T84 cells were stimulated with LPS (10 μg/ml) for 4 h followed by treatment with 0.1 and 1.0 μM of SP-333 in the presence of 500 μM Zaprinast, for 2 h. The control cells (without LPS treatment) were washed and refilled with fresh media and harvested simultaneously with treated cells. Nuclear and cytosolic extracts were prepared by the previously described method (Aiamkitsumrit et al. 2007). Protein concentration was measured with a Bio-Rad protein assay kit (Bio-Rad, Hercules, Calif.). The extracts were stored at −80° C. until use.
T84 cells at 85-90% confluence were washed and treated with 10 μg/ml Escherichia coli LPS (Sigma-Aldrich, St. Louis, Mo.) for 4 h.
Western Blot analysis: This was performed essentially as described^21 employing either 50 μg of cytoplasmic or 25 μg proteins of the nuclear fractions. The blots were probed overnight with primary antibodies of interest (anti-p65 antibody, 1:200 dilution; anti-IκB antibody 1:500 dilution; anti-phosphorylated p65 antibody, 1:250 dilution; anti-phosphorylated IκB antibody 1:250 dilution; all were from Santa Cruz Biotechnology (Santa Cruz, Calif.). Anti-IKK-β and phosphorylated IKK-α/β (Ser 176/180) were purchased from Cell Signaling Technology, Boston, Mass. and used at 1:500 dilution; anti-mouse or anti-rabbit antibodies conjugated to […] were used for chemiluminescence detection as recommended by manufacturer (GE Healthcare, Piscataway, N.J.).

Test [6] concerns the target guanylate cyclase C (GC-C) receptor (human, UniProt P25092 24-1073). The test is described as follows: cell-based or functional assay.
The mark [7] stands for this setting: 5-ASA 100 mg/kg, vs DSS alone or DSS plus vehicle.

Chain of guanylate cyclase C (GC-C) receptor (P25092 24-1073): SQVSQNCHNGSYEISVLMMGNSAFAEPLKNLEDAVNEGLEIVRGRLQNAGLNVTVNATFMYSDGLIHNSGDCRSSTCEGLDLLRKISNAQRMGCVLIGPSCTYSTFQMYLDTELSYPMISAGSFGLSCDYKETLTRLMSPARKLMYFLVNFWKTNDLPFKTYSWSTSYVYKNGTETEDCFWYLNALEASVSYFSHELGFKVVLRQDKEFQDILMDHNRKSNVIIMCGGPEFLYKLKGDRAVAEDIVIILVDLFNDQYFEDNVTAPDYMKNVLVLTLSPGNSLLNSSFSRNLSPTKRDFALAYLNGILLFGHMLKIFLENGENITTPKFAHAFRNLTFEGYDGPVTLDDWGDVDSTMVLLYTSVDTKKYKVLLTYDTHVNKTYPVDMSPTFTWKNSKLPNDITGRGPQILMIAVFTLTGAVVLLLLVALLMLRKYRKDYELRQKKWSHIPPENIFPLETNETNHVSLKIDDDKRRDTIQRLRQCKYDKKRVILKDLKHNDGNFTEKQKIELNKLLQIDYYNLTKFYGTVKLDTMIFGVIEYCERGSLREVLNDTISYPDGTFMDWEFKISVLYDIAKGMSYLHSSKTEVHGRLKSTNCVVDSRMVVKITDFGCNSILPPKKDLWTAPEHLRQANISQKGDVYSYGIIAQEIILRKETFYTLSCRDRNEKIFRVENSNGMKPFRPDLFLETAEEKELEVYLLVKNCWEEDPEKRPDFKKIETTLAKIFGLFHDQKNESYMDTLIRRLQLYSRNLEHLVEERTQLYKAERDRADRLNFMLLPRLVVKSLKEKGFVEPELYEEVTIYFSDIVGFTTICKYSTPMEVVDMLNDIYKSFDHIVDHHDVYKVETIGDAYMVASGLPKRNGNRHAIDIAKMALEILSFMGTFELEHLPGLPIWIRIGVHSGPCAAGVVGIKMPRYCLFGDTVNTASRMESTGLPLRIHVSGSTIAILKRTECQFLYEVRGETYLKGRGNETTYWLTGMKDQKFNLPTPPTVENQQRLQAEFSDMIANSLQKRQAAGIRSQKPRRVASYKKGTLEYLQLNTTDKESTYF

As to `[Cl][Hg][Cl]` [HgCl2], the “GCRA-mediated cGMP production by T84 cells” value with Src is “inhibited”.

As to “Asn^1-Asp^2-Glu^3-Cys^4-Glu^5-Leu^6-Cys^7-Val^8-Asn^9-Val^10-Ala^11-Cys^12-Thr^13-Gly^14-Cys^15 (NDECELCVNVACTGC) [SP-338]”, the “biological activity of the major metabolite of plecanatide in SIF” value in test [1] was “appears to retain biological activity”.

Turning to `Nc1ccc(O)c(C(=O)O)c1` [5-ASA, 5-aminosalicylic acid, reference compound], the “histological evaluation of colon tissues (crypts)” value with DSS-induced colitis (5-ASA 100 mg/kg) is “only patchy loss of crypts”. For the same molecule, in the test on DSS-induced colitis (setting [7]), the “mean DAI scores” value is on record as “lower” and the “mean scores of colitis severity” value is recorded as “lower”. In the test with DSS-induced colitis (DSS+5-ASA 100 mg/kg, representative image FIG. 10F), this molecule yielded a histopathology score of 2. Besides, the “MPO activity compared to DSS treated animals” value in test [2] is “considerably reduced”. Also, the “initial MPO activity” value in test [2] (p=0.010) was 0.029±0.004 units/minute. The “proportion of Ki-67 positive crypts” value in test [3] is listed as 53.5±12.33%.

Consider `CCCOc1ccccc1-c1nc2nn[nH]c2c(=O)[nH]1` [zaprinast, reference compound], for which the cGMP levels result with NF-κB [4] is reported as “did not increase cGMP levels”. Moreover, the NF-κB activation entry in the test on NF-κB [5] (zaprinast 500 μM alone, T84 cells) is listed as “did not inhibit NF-κB activation”.

With `Nc1nc2c(nc(Br)n2[C@@H]2O[C@@H]3COP(=O)(O)O[C@H]3[C@H]2O)c(=O)[nH]1` [8-Br-cGMP, 8-Bromo-cyclic GMP, reference compound], the “levels of phospho-p65” value with NF-κB [5] (LPS 10 μg/ml 4 h, then 8-Br-cGMP (1 mM) 16 h, zaprinast 500 μM) is reported as “reduced levels of phospho-p65 in a dose-dependent manner”.

On to [dN]DECELCVNVACTGC[dL] (disulfide 4-12, 7-15) [SP-333], for which, in test [6], the “cGMP accumulation in T84 cells (EC50)” value came to 283 nM and the “cGMP synthesis in T84 cells (EC50)” value worked out at 283 nM.

NDECELCVNVACTGCL (disulfide 4-12, 7-15) [Plecanatide (SP-304)]: the “cGMP accumulation in T84 cells (EC50)” value in test [6] worked out at 189 nM.
